Laboratory results from ChEMBL document CHEMBL1133412, “Rational design, synthesis and structure-activity relationships of antitumor (E)-2-benzylidene-1-tetralones and (E)-2-benzylidene-1-indanones” (Bioorg Med Chem Lett, 2000).
Activity calls are given as the source filed them.

Legend:
Assay type in all cases: functional, cell-based
NIH3T3 [1] = assay: Cytotoxicity was evaluated against NIH3T3 tumor cell lines; Inactive; conditions: Mus musculus
HL-60 [2] = assay: Cytotoxicity was evaluated against HL-60 tumor cell lines; Inactive; conditions: Homo sapiens
L1210 [3] = assay: Cytotoxicity was evaluated against L1210 tumor cell lines; Inactive; conditions: Mus musculus
NCI-H596 [4] = assay: Cytotoxicity was evaluated against H596 tumor cell lines; Inactive; conditions: Homo sapiens
WI-38 [5] = assay: Cytotoxicity was evaluated against WI38 tumor cell lines; Inactive; conditions: Homo sapiens
A549 [6] = assay: Cytotoxicity was evaluated against A549 tumor cell lines; Inactive; conditions: Homo sapiens
MOLT-4 [7] = assay: Cytotoxicity was evaluated against Molt-4 tumor cell lines; Inactive; conditions: Homo sapiens
K562 [8] = assay: Cytotoxicity was evaluated against K562 tumor cell lines; Inactive; conditions: Homo sapiens
Jurkat = assay: In vitro test for antitumor activity against human Jurkat cell line using a formazan dye (MTT) conversion assay.
B16 [9] = assay: Cytotoxicity was evaluated against B16 tumor cell lines; Inactive; conditions: Mus musculus
WIL2 [10] = assay: Cytotoxicity was evaluated against WIL2 tumor cell lines; Inactive; conditions: Homo sapiens
NCI-H292 [11] = assay: Cytotoxicity was evaluated against H292 tumor cell lines; Inactive; conditions: Homo sapiens
CCRF-CEM [12] = assay: Cytotoxicity was evaluated against CEM tumor cell lines; Inactive; conditions: Homo sapiens
MCF7 [13] = assay: Cytotoxicity was evaluated against MCF-7 tumor cell lines; Inactive; conditions: Homo sapiens
NCI-H292 [14] = assay: Cytotoxicity evaluated against H292 tumor cell lines; Significant activity; conditions: Homo sapiens
WI-38 [15] = assay: Cytotoxicity evaluated against WI38 tumor cell lines; Significant activity; conditions: Homo sapiens
NIH3T3 [16] = assay: Cytotoxicity evaluated against NIH3T3 tumor cell lines; Significant activity; conditions: Mus musculus
HL-60 [17] = assay: Cytotoxicity evaluated against HL-60 tumor cell lines; Significant activity; conditions: Homo sapiens
CCRF-CEM [18] = assay: Cytotoxicity evaluated against CEM tumor cell lines; Significant activity; conditions: Homo sapiens
B16 [19] = assay: Cytotoxicity was evaluated against B16 tumor cell lines; Significant activity; conditions: Mus musculus
MCF7 [20] = assay: Cytotoxicity evaluated against MCF-7 tumor cell lines; Significant activity; conditions: Homo sapiens
MOLT-4 [21] = assay: Cytotoxicity was evaluated against Molt-4 tumor cell lines; conditions: Homo sapiens
NCI-H596 [22] = assay: Cytotoxicity evaluated against H596 tumor cell lines; Significant activity; conditions: Homo sapiens
L1210 [23] = assay: Cytotoxicity evaluated against L1210 tumor cell lines; Significant activity; conditions: Mus musculus
K562 [24] = assay: Cytotoxicity evaluated against K562 tumor cell lines; Significant activity; conditions: Homo sapiens
A549 [25] = assay: Cytotoxicity evaluated against A549 tumor cell lines; significant activity; conditions: Homo sapiens
WIL2 [26] = assay: Cytotoxicity evaluated against WIL2 tumor cell lines; Significant activity; conditions: Homo sapiens

COc1cc2c(cc1OC)C(=O)/C(=C/c1ccc(O)c(C(=O)O)c1)CC2
> 50 µM: IC50 (Jurkat)
inactive: Cytotoxicity (NIH3T3 [1]) | Cytotoxicity (HL-60 [2]) | Cytotoxicity (L1210 [3]) | Cytotoxicity (NCI-H596 [4]) | Cytotoxicity (WI-38 [5]) | Cytotoxicity (A549 [6]) | Cytotoxicity (MOLT-4 [7]) | Cytotoxicity (K562 [8]) | Cytotoxicity (B16 [9]) | Cytotoxicity (WIL2 [10]) | Cytotoxicity (NCI-H292 [11]) | Cytotoxicity (CCRF-CEM [12]) | Cytotoxicity (MCF7 [13])

COc1cc2c(cc1OC)C(=O)/C(=C/c1c(OC)cccc1OC)CC2
> 50 µM: IC50 (Jurkat)
inactive: Cytotoxicity (NIH3T3 [1]) | Cytotoxicity (HL-60 [2]) | Cytotoxicity (L1210 [3]) | Cytotoxicity (NCI-H596 [4]) | Cytotoxicity (WI-38 [5]) | Cytotoxicity (A549 [6]) | Cytotoxicity (MOLT-4 [7]) | Cytotoxicity (K562 [8]) | Cytotoxicity (B16 [9]) | Cytotoxicity (WIL2 [10]) | Cytotoxicity (NCI-H292 [11]) | Cytotoxicity (CCRF-CEM [12]) | Cytotoxicity (MCF7 [13])

COc1cccc(/C=C2\Cc3cc(OC)c(OC)cc3C2=O)c1
active: Cytotoxicity (NCI-H292 [14]) Significant activity | Cytotoxicity (WI-38 [15]) Significant activity | Cytotoxicity (NIH3T3 [16]) Significant activity | Cytotoxicity (HL-60 [17]) Significant activity | Cytotoxicity (CCRF-CEM [18]) Significant activity | Cytotoxicity (B16 [19]) Significant activity | Cytotoxicity (MCF7 [20]) Significant activity | Cytotoxicity (MOLT-4 [21]) Significant activity | Cytotoxicity (NCI-H596 [22]) Significant activity | Cytotoxicity (L1210 [23]) Significant activity | Cytotoxicity (K562 [24]) Significant activity | Cytotoxicity (A549 [25]) Significant activity | Cytotoxicity (WIL2 [26]) Significant activity
12.8 µM: IC50 (Jurkat)

COc1cc2c(cc1OC)C(=O)/C(=C/c1cccc(C)c1)C2
1.8 µM: IC50 (Jurkat)
active: Cytotoxicity (NCI-H292 [14]) Significant activity | Cytotoxicity (WI-38 [15]) Significant activity | Cytotoxicity (NIH3T3 [16]) Significant activity | Cytotoxicity (HL-60 [17]) Significant activity | Cytotoxicity (CCRF-CEM [18]) Significant activity | Cytotoxicity (B16 [19]) Significant activity | Cytotoxicity (MCF7 [20]) Significant activity | Cytotoxicity (MOLT-4 [21]) Significant activity | Cytotoxicity (NCI-H596 [22]) Significant activity | Cytotoxicity (L1210 [23]) Significant activity | Cytotoxicity (K562 [24]) Significant activity | Cytotoxicity (A549 [25]) Significant activity | Cytotoxicity (WIL2 [26]) Significant activity

COc1cc2c(cc1OC)C(=O)/C(=C/c1cccc([N+](=O)[O-])c1)CC2
9 µM: IC50 (Jurkat)
active: Cytotoxicity (NCI-H292 [14]) Significant activity | Cytotoxicity (WI-38 [15]) Significant activity | Cytotoxicity (NIH3T3 [16]) Significant activity | Cytotoxicity (HL-60 [17]) Significant activity | Cytotoxicity (CCRF-CEM [18]) Significant activity | Cytotoxicity (B16 [19]) Significant activity | Cytotoxicity (MCF7 [20]) Significant activity | Cytotoxicity (MOLT-4 [21]) Significant activity | Cytotoxicity (NCI-H596 [22]) Significant activity | Cytotoxicity (L1210 [23]) Significant activity | Cytotoxicity (K562 [24]) Significant activity | Cytotoxicity (A549 [25]) Significant activity | Cytotoxicity (WIL2 [26]) Significant activity

COc1cc2c(cc1OC)C(=O)/C(=C/c1cc(I)cc(I)c1O)C2
active: Cytotoxicity (NCI-H292 [14]) Significant activity | Cytotoxicity (WI-38 [15]) Significant activity | Cytotoxicity (NIH3T3 [16]) Significant activity | Cytotoxicity (HL-60 [17]) Significant activity | Cytotoxicity (CCRF-CEM [18]) Significant activity | Cytotoxicity (B16 [19]) Significant activity | Cytotoxicity (MCF7 [20]) Significant activity | Cytotoxicity (MOLT-4 [21]) Significant activity | Cytotoxicity (NCI-H596 [22]) Significant activity | Cytotoxicity (L1210 [23]) Significant activity | Cytotoxicity (K562 [24]) Significant activity | Cytotoxicity (A549 [25]) Significant activity | Cytotoxicity (WIL2 [26]) Significant activity
2.5 µM: IC50 (Jurkat)

COc1cc2c(cc1OC)C(=O)/C(=C/c1cc(C)c(O)c(C)c1)CC2
active: Cytotoxicity (NCI-H292 [14]) Significant activity | Cytotoxicity (WI-38 [15]) Significant activity | Cytotoxicity (NIH3T3 [16]) Significant activity | Cytotoxicity (HL-60 [17]) Significant activity | Cytotoxicity (CCRF-CEM [18]) Significant activity | Cytotoxicity (B16 [19]) Significant activity | Cytotoxicity (MCF7 [20]) Significant activity | Cytotoxicity (MOLT-4 [21]) Significant activity | Cytotoxicity (NCI-H596 [22]) Significant activity | Cytotoxicity (L1210 [23]) Significant activity | Cytotoxicity (K562 [24]) Significant activity | Cytotoxicity (A549 [25]) Significant activity | Cytotoxicity (WIL2 [26]) Significant activity
4.8 µM: IC50 (Jurkat)
